Source: patent publication US10780076B2, “Inhibition of cancer cell motility” (Northwestern University, priority 2014, dated 2020)

Tests used:
[1] = test system: phosphorylated Ser226 on HSP90β in PC3 cells; assay: PhosphoScan LC-MS/MS of BL4176 immunoprecipitate; type: cell-based, human; settings: 10 μM, 3 days, then TGFβ
Protocol: FIG. 16. Identification of the 83 kDa band using a proteomic approach. PC3 cells were pre-treated with 10 μM KBU2046 or vehicle (control) for 3 days, then treated with TGFβ for 1 hr, and the resultant cell lysates were subjected to immunoprecipitation with BL4176 (Kinoview® phospho-motif antibody). Proteins bound in this manner were analyzed using PhosphoScan™ technology. This identified 483 unique phosphopeptide assignments from 306 parent proteins, with a mean false discovery rate of 0.30% (estimated via Sorcerer search of composite human database of forward and reverse protein entries). Only proteins where the average values for treatment and control were each 3 times that of background were considered. Further, it was required that each of the replicate values (used to calculate the average) to be >/=2.5 fold above background. According to these parameters, there were 19 phospho-proteins whose expression decreased in cells treated with KBU2046, compared to control.
Screening for changes in the kinome induced by KBU2046 were evaluated with the Kinoview™ assay system. Proteins pulled down by motif-directed Kinoview™ antibody were identified through PhosphoScan™ technology, using LTQ-Orbitrap LC-MS/MS analysis coupled to a SEQUEST/Sorcerer data analysis suite (Lundgren et al., 2009; herein incorporated by reference in its entirety). […]

[2] = Systemic off-target effects: organ histology and organ function; type: in vivo, mice
From the text: FIG. 13. KBU2046 treatment is not associated with systemic off-target effects. […] After 35 days of treatment, the following organs were harvested at necropsy, and stained with H&E (alternative staining methods as indicated): heart, lungs, esophagus, stomach, colon, small intestine, liver (Trichrome staining), kidneys (Trichrome staining), adrenals, bladder, prostate, spleen, pancreas, brain, testes, and bone marrow and peripheral blood (Giemsa staining). Organs were examined for damage using a semi-quantitative histological scoring system (Knodell et al., 1981; herein incorporated by reference in its entirety). […] Changes in the liver observed in control mice were not increased by KBU2046 treatment. […] On day 8 and 14, all critical organs were weighed, and the following parameters measured in blood: cholesterol, triglycerides, alanine aminotransferase (ALT), aspartate aminotransferase (AST), total bilirubin, glucose, phosphorus, total protein, calcium, blood urea nitrogen (BUN), creatinine, albumin, Na, K, Cl, white blood cells (with differential), red blood cells, hemoglobin, platelets.
Orthotopic implantation of human PCa cells and quantification of distant metastasis was performed as described (Pavese et al., 2013; herein incorporated by reference in its entirety). […] Quantification of KBU2046 plasma concentrations was performed by LCMS. […]

NCI 60 cell line panel = NCI 60 cell line panel screen; type: cell-based, human; settings: initial screening per DTP protocol
From the text: FIG. 8. […] KBU2046 was submitted to the Developmental Therapeutics Program (DTP) of the US National Cancer Institute (NCI), underwent initial screening across the NCI 60 cell line panel per DTP protocol (Shoemaker, 2006; herein incorporated by reference in its entirety), and the resultant COMPARE diagram is depicted.
Additional functional measures of toxicity included a NCI-based screen of the NCI 60-cell line panel (Shoemaker, 2006; herein incorporated by reference in its entirety), expression of estrogen-responsive genes by qRT/PCR (Ding et al., 2007; herein incorporated by reference in its entirety), induction of an estrogen-responsive promoter by luciferase assay (Breen et al., 2013; Catherino and Jordan, 1995; herein incorporated by reference in their entireties), and a hematopoietic stem cell 14-day colony formation assay (Bergan et al., 1996; herein incorporated by reference in its entirety). Protein Data Base (PDB) X-ray crystallographic structural data (PDB IDs: IX7R, IX7J) was used to determine what chemical groups of genistein bound to the ER. The migration of individual cells was assessed by time-lapse video microscopy.

[3] = test system: human PCa PC3-M cell orthotopic implants; assay: Orthotopic murine model of human PCa metastasis; type: in vivo, mice; settings: lung metastasis, KBU2046 in chow, dose-dependent
Protocol: (§1) FIGS. 3A-D. KBU2046 inhibits cancer metastasis and prolongs life. (A, B) Inhibition of PCa metastasis. Cohorts of athymic mice bearing human PCa PC3-M cell orthotopic implants (A), or of non-tumor bearing athymic mice (B), were treated with KBU2046 incorporated into chow, and resultant lung metastasis (A) or plasma KBU2046 concentration (B) measured. Values are the mean±SEM. The relationship between dose and metastasis was evaluated by two-sided ANOVA (A). (C) Comprehensive characterization of KBU2046 phannacokinetics. CD1 mice were dosed with 100 mg KBU2046/kg via oral gavage or intravenous injection (iv), and blood collected at the indicated time points. The dotted horizontal line denotes a concentration of 24 nM, which was the concentration of KBU2046 measured in the blood of mice whose metastasis were suppressed by 92% (A, B). […]
(§2) Orthotopic implantation of human PCa cells and quantification of distant metastasis was performed as described (Pavese et al., 2013; herein incorporated by reference in its entirety). […] Quantification of KBU2046 plasma concentrations was performed by LCMS. […] Critical organs were examined for structural damage using a semi-quantitative histological scoring system (Knodell et al., 1981; herein incorporated by reference in its entirety), while their function was assessed by comprehensive clinical laboratory testing of blood samples. […]

[4] = Plasma KBU2046 concentration in chow-treated athymic mice; type: in vivo
Protocol: as §1, §2

plasma concentrations at which metastasis decreased [4]: 1.1 to 24 nM
Structure (SMILES): O=C1c2ccccc2OCC1c1ccc(F)cc1 (racemic) [KBU2046, 4′-fluoroisoflavanone]
decrease in abundance of phosphorylated Ser226 on HSP90β [1]: 6.6 fold
organ damage by histologic examination ([2]; Balb/c athymic mice, 35 days of treatment): No organ damage was observed
organ weights and blood chemistry/hematology parameters ([2]; CD1 mice, single iv 15, 75 or 125 mg/kg, day 8 and 14): No abnormal alterations in any of these parameters were observed
cell toxicity in NCI 60 cell line panel (NCI 60 cell line panel): minimal-to-no cell toxicity
decrease in metastasis [3]: up to 92%
